According to BindingDB's records for doi:10.1021/jm991098z (Friedrich-Alexander University, 2000):

Tests used:
[1] = target: T1, D(2) dopamine receptor (Homo sapiens, UniProt P14416); experiment: Binding Affinity was tested on relative proportion of High Affinity Site of Dopamine receptor D2L
[2] = target: T1, D(2) dopamine receptor; experiment: Binding Affinity was tested on relative proportion of High Affinity Site of Dopamine receptor D2S
[3] = target: T2, D(4) dopamine receptor (Homo sapiens, UniProt P21917); experiment: Binding Affinity was tested on relative proportion of High Affinity Site of Dopamine receptor D4.4
T2 sequence (P21917 whole entry): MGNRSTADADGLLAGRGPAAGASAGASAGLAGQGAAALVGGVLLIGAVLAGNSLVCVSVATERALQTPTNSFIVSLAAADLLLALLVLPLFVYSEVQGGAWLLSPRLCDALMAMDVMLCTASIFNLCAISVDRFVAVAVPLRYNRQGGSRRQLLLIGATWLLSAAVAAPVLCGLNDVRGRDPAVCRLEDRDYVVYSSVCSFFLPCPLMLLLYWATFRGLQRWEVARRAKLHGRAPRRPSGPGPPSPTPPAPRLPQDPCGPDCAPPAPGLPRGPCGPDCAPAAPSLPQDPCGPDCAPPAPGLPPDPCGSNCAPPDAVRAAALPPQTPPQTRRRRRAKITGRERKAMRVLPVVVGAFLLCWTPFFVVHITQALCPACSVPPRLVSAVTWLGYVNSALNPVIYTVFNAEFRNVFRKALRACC

[4] = Binding Affinity was tested on relative proportion of High Affinity Site of Dopamine receptor D3

T1 sequence (P14416 whole entry): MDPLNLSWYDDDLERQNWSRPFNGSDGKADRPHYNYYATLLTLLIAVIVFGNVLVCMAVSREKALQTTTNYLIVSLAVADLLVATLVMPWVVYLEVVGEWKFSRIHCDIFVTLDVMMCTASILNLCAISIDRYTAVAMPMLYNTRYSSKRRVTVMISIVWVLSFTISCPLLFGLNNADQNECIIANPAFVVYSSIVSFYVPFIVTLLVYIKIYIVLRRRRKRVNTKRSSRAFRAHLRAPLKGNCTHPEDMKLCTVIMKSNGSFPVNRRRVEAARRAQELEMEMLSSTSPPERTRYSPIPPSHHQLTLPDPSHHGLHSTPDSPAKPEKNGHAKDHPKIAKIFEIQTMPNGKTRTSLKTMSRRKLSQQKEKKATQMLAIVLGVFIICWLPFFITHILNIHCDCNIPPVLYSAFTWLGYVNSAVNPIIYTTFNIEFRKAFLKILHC

Compound | RH [1] [%] | RH [2] [%] | RH [3] [%] | Ki [4] [nM]
C#CC1=CCC(N(CCC)CCC)CC1 (configuration not stated) [(4-Ethynyl-cyclohex-3-enyl)-dipropyl-amine] | 38 | 34 | 38 | 
CCCN(CCC)C1CC=C(C#C[Si](C)(C)C)CC1 (configuration not stated) [Dipropyl-(4-trimethylsilanylethynyl-cyclohex-3-enyl)-amine] | 16 | 17 | 54 | 23
